# Measurements taken from patent US20230165841A1, “PREVENTION AND INTERVENTION OF INFARCT EXPANSION FOLLOWING HEMORRHAGIC INFARCTIONS” (CEDARS-SINAI MEDICAL CENTER, priority 2020, published 2023).
# Entries after “also recorded” stand apart in the source; their conditions may differ.
# Key:
# [1] = test system: mice with reperfused MI; details: pre-treating prior to ischemia; cited from earlier work
# [2] = cited from earlier work
# [3] = test system: rats subjected to hMIs (90-min I/R); details: for LVEF: echocardiography, EDTA 40 mg/kg/day oral gavage upon reperfusion, followed 4 weeks, PBS 30±4%; for Adverse LV remodeling / cardioprotection: rats with hMI, post reperfusion treatment
# [4] = test system: dogs with reperfused hemorrhagic MI; experiment: Deferiprone interventional arm in canine model of hemorrhagic MI (serial CMR); type: in vivo, dog
# [5] = test system: cardiomyocyte culture; experiment: Total ROS in cardiomyocyte culture treated with Hx, DFP, hemin; type: cell-based; details: compared to controls; FIG. 16 axis μM/mg protein/min
# Description: FIG. 16 is a bar graph depicting the total ROS production (μM/mg protein/min) in cardiomyocyte culture treated with different agents or control, indicating the importance of physiochemical state of degradation products of hemorrhage being the therapeutic targets.
# Physiochemical features of degradation products of hemorrhage are important for determining optimal therapy. An early byproduct of hemorrhage is extracellular heme (an Fe^2+ complex), which is eventually internalized by cardiomyocytes. Applicant tested whether pretreating cardiomyocytes in culture with hemopexin (Hx), a heme scavenger, can rescue the cells from oxidative stress compared to an intracellular Fe^3+ chelator deferiprone (DFP). Methods: Studies were performed in an cardiomyocyte culture. Total ROS following treatment with Hx, DFP, hemin, hemin+Hx, hemin+DFP were measured. […] Summary: Location of hemorrhagic byproducts (intra- vs. extra-cellular) and oxidation state are critical features that need to be accounted for in the development of therapies against hMI. To develop an optimal ICT strategy against hMI we will identify the physiochemical features of hemorrhagic byproducts in rats with hMI sacrificed at different time points.
# [6] = test system: post MI patients; details: 6 months of EDTA therapy starting 6-weeks post MI; cited from earlier work
# [7] = test system: rats with 90-min I/R (hMI); experiment: Hemopexin treatment of rats with 90-min I/R (hMI); type: in vivo, rat
# Description: FIGS. 12A and 12B depict the therapeutic benefits of hemopexin (Hx). […] Note the ventricular dilation in rats treated with PBS (not evident Hx treated rates). Long- and shor-axis (along dotted lines) views are shown.
# Background: Hemopexin (Hx), a known scavenger of heme, and a key byproduct of hemorrhage. Applicant tested whether treating rats with 90-min I/R (known to yield hMI) with Hx could reduce oxidative stress in the acute phase and improve LV remodeling in the chronic phase. Methods: Rats (n=12) underwent 90-min I/R: 50% of the animals were treated with Hx (700 μg, i.p. immediately and 2 days post reperfusion) and the rest were treated with PBS. LV function was determined with echo. Half of each group was sacrificed at 24-hrs and the rest were sacrificed at 1-month post MI. […] LVEF were: 51±4% (Hx+) vs 32±5% (control), p<0.05. Summary: Heme-specific scavenger, Hx, can attenuate the adverse effects of hMI.
# [8] = DFP 100 mg/kg/day oral gavage from 3 days post reperfusion
# [9] = vs EDTA-treated or placebo controls
molecule,measurement,setting,value
"c1ccc(-c2ccccn2)nc1 [BPD, 2,2-bipyridl]",Mitochondrial iron and reperfusion injury,[1],could reduce
"CC(=O)N(O)CCCCCNC(=O)CCC(=O)N(O)CCCCCNC(=O)CCC(=O)N(O)CCCCCN [DFO, deferoxamine]",Lipid solubility (note in Location column),[2],(lipid insoluble)
"Cc1c(O)c(=O)ccn1C [DFP, Deferiprone]",Safety of delayed treatment,[3]; [8],safe
same,Iron and proinflammatory markers in the scarred myocardium,"[3]; IL-1β, TNF-α, MMP9, vs EDTA-treated or placebo controls",reduced
same,Iron in MI zones,"[3]; T2*-CMR / Prussian Blue, vs EDTA-treated or placebo controls",little to no iron; also recorded: much lower
same,LVEF,[3]; [8],42±4%
same,Adverse LV remodeling / cardioprotection,[3],marked reduction
same,LV dilatation,[3]; [9],reduced
same,Wall thickness (infarcted and remote),[3]; [9],thicker
same,"Relative PDFF in the MI zones, change between D3 and Wk8",[4]; DFP+/IMH+ group,did not show an increase
same,LVEF,"[4]; DFP+/IMH+ group by M6, p<0.03",over 40%
same,"Remote wall thickness, change over the 6-month period","[4]; DFP+/IMH+ group, diastolic",decreased
same,Magnitude of peak circumferential strain (Peak εc) vs DFP−/IMH+ group,"[4]; Wk8 to M6 and D3 to M6, p<0.05",significant greater
same,Fat infiltration within the MI zones vs DFP−/IMH+ group,[4]; at M6,significantly lower
same,"Infarct wall thickness, treated group compared to untreated group","[4]; at M6, p<0.05",+34%
same,"Infarct-to-remote wall thickness (I:RWT), DFP+/IMH+ vs DFP−/IMH+","[4]; at M6, p<0.05",+67%
same,"Remote wall thickness, DFP−/IMH+ group compared to DFP+/IMH+ group","[4]; at M6, untreated larger, p<0.05",+28%
same,"LVEF, DFP+/IMH+ group vs DFP−/IMH+ group","[4]; at Month 6, p<0.005",+36%
same,Fat content based on PDFF (normalized to D3) vs untreated group,[4]; at Wk8 and M6,marked reduction
same,End-systolic volume (ESV) vs DFP−/IMH+ group,"[4]; at both Wk8 and Mo6, p<0.05",lower
same,Fat content within MI zone vs untreated control group,[4]; at the end of the treatment period (Wk8),decreased precipitously
same,"Total ROS, agent alone",[5],did not increase
"O=C(O)CN(CCN(CC(=O)O)CC(=O)O)CC(=O)O [EDTA, ethylenediaminetetraacetic acid]",LVEF,[3]; [8],32±3%
same,Adverse LV remodeling / cardioprotection,[3],did not decrease; also recorded: does not provide cardioprotection
same,Stability of ferric-EDTA complex,[2]; can be transformed to ferrous-EDTA in vivo,unstable
same,MACE,[6],did not decrease
hemin,"Total ROS, agent alone",[5],markedly increased
"hemopexin (protein, UniProt P02790 24-462, looked up, a known scavenger of heme) Hemopexin: TPLPPTSAHGNVAEGETKPDPDVTERCSDGWSFDATTLDDNGTMLFFKGEFVWKSHKWDRELISERWKNFPSPVDAAFRQGHNSVFLIKGDKVWVYPPEKKEKGYPKLLQDEFPGIPSPLDAAVECHRGECQAEGVLFFQGDREWFWDLATGTMKERSWPAVGNCSSALRWLGRYYCFQGNQFLRFDPVRGEVPPRYPRDVRDYFMPCPGRGHGHRNGTGHGNSTHHGPEYMRCSPHLVLSALTSDNHGATYAFSGTHYWRLDTSRDGWHSWPIAHQWPQGPSAVDAAFSWEEKLYLVQGTQVYVFLTKGGYTLVSGYPKRLEKEVGTPHGIILDSVDAAFICPGSSRLHIMAGRRLWWLDLKSGAQATWTELPWPHEKVDGALCMEKSLGPNSCSANGPGLYLIHGPNLYCYSDVEKLNAAKALPQPQNVTSLLGCTH",LV remodeling,"[7]; 1-month post reperfusion, vs PBS-treated group",better
same,Total ROS (production within MI),"[7]; 24 hrs post reperfusion, Hx 700 μg i.p. immediately and 2 days post reperfusion, vs PBS control",significantly lower
same,LVEF,"[7]; echo, Hx 700 μg i.p. immediately and 2 days post reperfusion, control 32±5%, p<0.05",51±4%
same,"Total ROS, agent alone",[5],did not increase
